Like-named read-outs stand apart in the source and are kept apart here.
Test system: NLRP3
Test: IL-1β secretion assay in PMA-differentiated, LPS/nigericin-stimulated THP-1 cells (ELISA)
Format: cell-based
Conditions: 25 ng/mL LPS then nigericin, IL-1β in supernatant
Method in brief: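 PMA-differentiated (5 ng/mL, 40 h) THP-1 cells primed with 25 ng/mL LPS in serum-free medium for 2 h, then compound (0.5% DMSO) for 1 h before nigericin, 2 h at 37 °C. Supernatant IL-1β measured by sandwich ELISA; dose-response normalized to LPS+nigericin high and LPS-only low controls.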

[1] = THP-1 cells, read-out: Activity
[2] = THP-1 cells, read-out: Activity (IC50 class)
[3] = Homo sapiens, THP-1, THP-1 cells, read-out: Activity
[4] = Homo sapiens, THP-1, THP-1 cells, read-out: Activity (IC50 class)

Row | SMILES | IC50 [1] [nM] | IC50 [2] [nM] | IC50 [3] [nM] | IC50 [4] [nM]
1 | O=C(CN1CC2(CC2(F)F)c2c(ccc(Br)c2F)C1=O)Nc1nc2ccccn2n1 (single isomer, unassigned) [Example 30, N-([1,2,4]triazolo[1,5-a]pyridin-2-yl)-2-[6-bromo-1′,1′,5-trifluoro-1-oxospiro[3H-isoquinoline-4,2′-cyclopropane]-2-yl]acetamide] | 29200 | > 10000 |  | 
2 | O=C(CN1CC2(CC2)c2cc(Br)ccc2C1=O)Nc1ncc2nc[nH]c2n1 [Example 55, 2-(6-bromo-1-oxospiro[3H-isoquinoline-4,1′-cyclopropane]-2-yl)-N-(9H-purin-2-yl)acetamide] |  |  | 114 | < 1000
3 | O=C(CN1CC2(CC2(F)F)c2cc(Br)ccc2C1=O)Nc1ncc(Cl)cn1 (single isomer, unassigned) [Example 16, N-(5-chloropyrimidin-2-yl)-2-[6-bromo-1′,1′-difluoro-1-oxospiro[3H-isoquinoline-4,2′-cyclopropane]-2-yl]acetamide] | 1590 |  |  | 1000 to 10000
4 | O=C(CN1CC2(CC2(F)F)c2cc(C(F)(F)F)ccc2C1=O)Nc1ncc(Cl)cn1 (single isomer, unassigned) [Example 38, N-(5-chloropyrimidin-2-yl)-2-[1′,1′-difluoro-6-(trifluoromethyl)-1-oxospiro[3H-isoquinoline-4,2′-cyclopropane]-2-yl]acetamide] | 126 |  |  | < 1000
5 | Cc1cnc(NC(=O)CN2CC3(CC3(F)F)c3c(ccc(Br)c3F)C2=O)nc1 (single isomer, unassigned) [Example 32, N-(5-methylpyrimidin-2-yl)-2-[6-bromo-1′,1′,5-trifluoro-1-oxospiro[3H-isoquinoline-4,2′-cyclopropane]-2-yl]acetamide] | 28600 | > 10000 |  | 
6 | C[C@]1(O)C[C@@H](NC(=O)CN2CC3(CC3(F)F)c3cc(C4(F)CC4)ccc3C2=O)C1 (single isomer, unassigned) [Example 23, N-(3-cis-hydroxy-3-methylcyclobutyl)-2-[1′,1′-difluoro-6-(1-fluorocyclopropyl)-1-oxospiro[3H-isoquinoline-4,2′-cyclopropane]-2-yl]acetamide] | 32 |  |  | < 1000
7 | O=C(CN1CC2(CC2)c2cc(Br)ccc2C1=O)Nc1nc2[nH]ncc2cc1F [Example 59, 2-(6-bromo-1-oxospiro[3H-isoquinoline-4,1′-cyclopropane]-2-yl)-N-[5-fluoro-1H-pyrazolo[3,4-b]pyridin-6-yl]acetamide] |  |  | 322 | < 1000

Reference: US20250197399A1, “COMPOUNDS, COMPOSITIONS, AND METHODS” (Tenvie Therapeutics, Inc., priority 2022, published 2025)
